Data from patent US20240059712A1, “BIFUNCTIONAL COMPOUNDS AND PHARMACEUTICAL USES THEREOF” (priority 2022, published 2024).

Columns and labels:
KRAS^G12D protein = molecular target: T1, KRAS^G12D protein (Homo sapiens, UniProt P01116, G12D); assay: Protein degradation study (western blot) in Aspc-1 cells; assay type: cell-based; conditions: for inhibition at 0.005 µM / inhibition at 0.05 µM: ASPC1, 24 h, 24 hours, read-out: Rate of degradation; for inhibition at 0.005 µM: Aspc-1 cells treated with 0.005 μM compound; for inhibition at 0.05 µM: Aspc-1 cells treated with 50 nM compound; for DC50: Aspc-1 cells, half-maximum degradation concentration, read-out: DC50 of compounds induced Ras G12D protein degradation
T1 construct: host or cells: Aspc-1 (AsPC-1) cells
T1 sequence (P01116 1-188 isoform P01116-2 G12D): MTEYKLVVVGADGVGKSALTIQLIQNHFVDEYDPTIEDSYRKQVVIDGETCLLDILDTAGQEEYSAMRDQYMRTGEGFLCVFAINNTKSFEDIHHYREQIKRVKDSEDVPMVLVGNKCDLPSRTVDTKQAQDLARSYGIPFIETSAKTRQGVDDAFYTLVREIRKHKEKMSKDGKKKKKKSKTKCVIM
Method: Aspc-1 (Cobioer, CBP60546) cells in exponential growth phase were inoculated on a 6-well cell culture plate (Corning, 3516) at density of 1E6/well; and cells in the plate were cultured in 37° C. incubator containing 5%-carbon dioxide. The next day, testing compounds were dissolved in DMSO (Sigma, RNBF5902) for the preparation of a 10-mM concentration stock solution. The stock solution was diluted with complete medium (RPMI-1640 supplemented with 10% fetal bovine serum, 1% penicillin-streptomycin), yielding working solutions of various concentrations. The plate, after the addition of compounds, was placed in a 5% carbon dioxide incubator, and incubated at 37° C. for 24 hours (final DMSO concentration was 0.1%). The plate was then removed from the incubator, and the cells were washed twice with precooled PBS (Gibco, 14190250), followed by addition of 80-μL RIPA lysis buffer (containing protease inhibitor (Invitrogen™, AM2696)) to each well. The adherent cells were scraped off with a cell scraper, and the cell lysate was transferred to a 1.5-mL centrifuge tube followed with a 30-minute incubation on ice. The lysate was then clarified with centrifugation at 14000 rpm for 10 min at 4° C. The supernatant was transferred into a new 1.5-mL centrifuge tube, and protein concentration was measured with BCA protein detection kit (Thermo Fisher, 23225). G12D protein level was assessed by western blot.
A mixture of cell lysate (40 μL) and loading buffer (10 μL, 5×SDS (Beyotime, P0015L)) was denatured in a water-bath at 95° C. for 10 min. The denatured protein sample, at 30 μL/well, was loaded into corresponding well of 4-20% Bis-Tris gel (Kingsley, M00656). Protein samples were initially electrophoresed at 80 V for 30 minutes, followed by 120 V for 40 minutes, until the bromophenol blue strip ran to an appropriate position. After electrophoresis, iBlot2 (Life Technologies, IB21001) was used to transfer the separated samples onto PVDF film. The PVDF membrane was washed with double-distilled water and then blocked in TBST (Thermo Scientific, 28360) buffer containing 5% non-fat milk, for 2 hours. Blocked membrane was rinsed with tris-buffered saline tween-20 (Thermo Scientific, 28360, TBST) three times, 10 minutes each. Membrane was then incubated with 1:1000 diluted KRAS primary antibody (CST, cat #14429S) overnight at 4° C. Membrane was rinsed in a way described previously followed by 1 hour incubation of secondary antibody at room temperature. After washing the film for three times with TBST, ECL color developing solution was applied, and image was captured with Biorad Chemi Doc gel imager. The band gray value was quantified (Image Lab), and protein degradation level was calculated according to the following formula:
Level of RAS protein expression=(RAS-compound/GAPDH)/(RAS-DMSO/GAPDH)
Level of degradation (%)=(1−Rate of RAS protein expression)×100
Symbols of −, +, ++, +++ indicate that the degradation level of Ras protein induced by testing compounds are […], 11 to 30%, 31 to 60% and greater than 60%, respectively.
Half-maximum degradation concentrations (DC50s) of testing compounds were calculated using GraphPad Prism and their values were shown in Table 6. Symbols of […] represent DC50s equal or less than 10 nM, 11-50 nM, 51-100 nM, and 101-200 nM, respectively.

Aspc-1 cells = assay: Cell proliferation study (Cell Titer Glo, 72 hours); assay type: cell-based; conditions: Homo sapiens, ASPC1, read-out: IC50, inhibitory effect on cellular proliferation
Method: Aspc-1 (Cobioer, CBP60546) cells were grown in RPMI 1640 (Gibco, 61870127) supplemented with 10% fetal bovine serum (Gibco, 10099141), 1% penicillin-streptomycin (Gibco, 15070-063). Aspc-1 cells in exponential growth phase were seeded into 96-well plate (Corning, 3599) at density of 4×10^3/well. Cells were cultured overnight at 37° C. with 5% CO2. On the next day, cells were treated with compound at various concentrations for 72 hours in 37° C., 5% CO2 incubator (final DMSO concentration is 0.1%). After treatment, the cell plates were added 100 μL Cell Tier Glo (Promega, G7573) to every well and incubated at RT for 10 minutes. Cell growth status was measured with Cell Tier Glo (Promega, G7573) following manufacturer's directions. The inhibition curve was obtained with GraphPad 7.0 software using four-parameter equation.

Compound `C#Cc1c(F)ccc2cc(O)cc(-c3ncc4c(N5CC6CCC(C5)N6)nc(OCC5(CN6CCC7(CC6)CC(CN6CCC(c8ccc9c(C%10CCC(=O)NC%10=O)nn(C)c9c8)CC6)C7)CC5)nc4c3F)c12` (stereo not shown) [Compound 29a] has an inhibition at 0.005 µM (KRAS^G12D protein) greater than 60%, an inhibition at 0.05 µM (KRAS^G12D protein) of 11 to 30% and a DC50 (KRAS^G12D protein) of less than 10 nM. It also gave an IC50 (Aspc-1 cells) of less than 100 nM.
Work on `C#Cc1c(F)ccc2cc(O)cc(-c3ncc4c(N5CC6CCC(C5)N6)nc(OCC5(CN6CCC(N7CC(CN8CCC(c9ccc%10c(C%11CCC(=O)NC%11=O)nn(C)c%10c9)CC8)C7)CC6)CC5)nc4c3F)c12` (stereo not shown) [Compound 30a] yielded an inhibition at 0.005 µM (KRAS^G12D protein) greater than 60%, an inhibition at 0.05 µM (KRAS^G12D protein) greater than 60% and a DC50 (KRAS^G12D protein) of less than 10 nM. The IC50 (Aspc-1 cells) was less than 100 nM.
In the case of `C#Cc1c(F)ccc2cc(O)cc(-c3ncc4c(N5CC6CCC(C5)N6)nc(OCC5(CN6CC7(CCC(N8CCC(c9ccc%10c(C%11CCC(=O)NC%11=O)nn(C)c%10c9)CC8)CC7)C6)CC5)nc4c3F)c12` (stereo not shown) [Compound 31a], the inhibition at 0.005 µM (KRAS^G12D protein) is reported as greater than 60%, the inhibition at 0.05 µM (KRAS^G12D protein) is reported as greater than 60% and the DC50 (KRAS^G12D protein) is reported as less than 10 nM. For the same compound, the IC50 (Aspc-1 cells) was less than 100 nM.
With `C#Cc1c(F)ccc2cc(O)cc(-c3ncc4c(N5CC6CCC(C5)N6)nc(OCC5(CN6CC7(CCC(CN8CCC(c9ccc%10c(C%11CCC(=O)NC%11=O)nn(C)c%10c9)CC8)CC7)C6)CC5)nc4c3F)c12` (stereo not shown) [Compound 32a] the inhibition at 0.005 µM (KRAS^G12D protein) was greater than 60%, the inhibition at 0.05 µM (KRAS^G12D protein) was 31 to 60% and the DC50 (KRAS^G12D protein) was less than 10 nM. It also gave an IC50 (Aspc-1 cells) of less than 100 nM.
`C#Cc1c(F)ccc2cc(O)cc(-c3ncc4c(N5CC6CCC(C5)N6)nc(OCC5(CN6CCC7(CCC(N8CCC(c9ccc%10c(C%11CCC(=O)NC%11=O)nn(C)c%10c9)CC8)CC7)CC6)CC5)nc4c3F)c12` (stereo not shown) [Compound 33a] was tested, and the inhibition at 0.005 µM (KRAS^G12D protein) was greater than 60%, the inhibition at 0.05 µM (KRAS^G12D protein) was greater than 60% and the DC50 (KRAS^G12D protein) was less than 10 nM. The IC50 (Aspc-1 cells) was less than 100 nM.
`C#Cc1c(F)ccc2cc(O)cc(-c3ncc4c(N5CC6CCC(C5)N6)nc(OCC5(CN6CCC7(CC6)CC(N6CCC(c8cc9c(cc8F)c(N8CCC(=O)NC8=O)nn9C)C(F)(F)C6)C7)CC5)nc4c3F)c12` (stereo not shown) [Compound 37a] gave a DC50 (KRAS^G12D protein) of less than 10 nM and an IC50 (Aspc-1 cells) of less than 100 nM.
For `Cn1nc(N2CCC(=O)NC2=O)c2cc(F)c(C3CCN(C4CC5(CCN(CC6(COc7nc(N8CC9CCC(C8)N9)c8cc(Cl)c(-c9ccc(F)c%10sc(N)c(C#N)c9%10)c(F)c8n7)CC6)CC5)C4)CC3)cc21` [Compound 40a], the inhibition at 0.005 µM (KRAS^G12D protein) was greater than 60%, the DC50 (KRAS^G12D protein) was less than 10 nM and the IC50 (Aspc-1 cells) was less than 100 nM.
